Experiments:
[1] = biological target: T1, hPK-M2 (Homo sapiens, UniProt P14618); experiment: Luminescent pyruvate kinase-luciferase coupled assay (KinaseGlo); type: biochemical; conditions: for activation at 57 µM / hPK, M2 Max. Res.: KinaseGlo, % activation at 57 μM of compound; for activation at 57 µM: read-out: hPK, M2 Max. Res.; for Emax: read-out: maximum response
Protocol: Luminescent Pyruvate Kinase-Luciferase Coupled Assay.
Production of a luminescent signal based on the generation of ATP by pyruvate kinase was determined by using the ATP-dependent enzyme firefly luciferase. Three μL of substrate mix (at r.t.) in assay buffer (50 mM imidazole pH 7.2, 50 mM KCl, 7 mM MgCl2, 0.01% tween 20, 0.05% BSA) was dispensed into Kalypsys white solid bottom 1,536 well microtiter plates using a bottle-valve solenoid-based dispenser (Kalypsys). The final concentrations of substrates in the assay were 0.1 mM ADP and 0.5 mM PEP. […] Microtiter plates were incubated at r.t. for 1 hour and 2 uL of luciferase detection mix (Kinase-Glo, Promega at 4° C. protected from light) was added and luminescence was read with a ViewLux (Perkin Elmer) using a 5 second exposure/plate. Data was normalized for AC50 values to control columns containing uninhibited enzyme (n), and AC100 inhibition (i) according the following equation: Activation (%)=[(c−n)/(n−i)]*100 where c=compound, n=DMSO neutral, i=no enzyme control. […] Monitoring of activation was accomplished using enzyme at 3× the final concentration.

[2] = biological target: T1, hPK-M2; experiment: Fluorescent pyruvate kinase-lactate dehydrogenase (LDH) coupled secondary assay; type: biochemical; conditions: for Emax: read-out: maximum response, LDH assay; for LDH hPK, M2 Max. Res.: % activation at 57 μM of compound
Protocol: Fluorescent Pyruvate Kinase-Lactate Dehydrogenase Coupled Secondary Assay.
Plates were immediately placed in ViewLux (Perkin Elmer) and NADH fluorescence was determined at 30 second exposure intervals for between 3 and 6 minutes. Data were normalized to the uninhibited and EC100 activation using known activators such as fructose-1,6-bis-phosphate. […] Data was collected on the Perkin Elmer Viewlux.

[3] = luminescent pyruvate kinase-luciferase coupled assay (KinaseGlo), tables, read-out: hPK, M2 AC50
[4] = tables, read-out: LDH hPK, M2 AC50
[5] = luciferase-coupled assay, read-out: AC50
[6] = luciferase-coupled assay, relative to activation by FBP

T1 sequence (P14618 whole entry): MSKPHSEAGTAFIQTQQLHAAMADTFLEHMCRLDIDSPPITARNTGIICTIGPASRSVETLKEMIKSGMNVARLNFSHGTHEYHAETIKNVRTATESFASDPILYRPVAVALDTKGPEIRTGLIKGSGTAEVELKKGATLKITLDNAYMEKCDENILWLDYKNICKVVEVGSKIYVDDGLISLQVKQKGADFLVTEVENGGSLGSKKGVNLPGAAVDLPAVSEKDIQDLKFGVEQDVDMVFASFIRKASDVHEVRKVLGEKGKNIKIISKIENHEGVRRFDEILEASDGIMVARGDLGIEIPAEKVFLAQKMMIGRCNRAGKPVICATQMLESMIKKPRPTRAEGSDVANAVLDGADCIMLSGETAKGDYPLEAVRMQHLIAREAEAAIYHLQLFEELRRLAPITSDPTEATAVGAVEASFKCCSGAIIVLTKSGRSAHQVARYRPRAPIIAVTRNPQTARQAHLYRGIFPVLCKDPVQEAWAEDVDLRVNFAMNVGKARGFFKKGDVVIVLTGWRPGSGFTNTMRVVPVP

SMILES	activation at 57 µM [1] [%]	AC50 [1, 3] [nM]	Emax [2] [%]	LDH hPK, M2 Max. Res. [2] [%]	AC50 [2, 4] [nM]	AC50 ([2]; read-out: AC50, LDH assay) [nM]	other results
Cc1cc2c(s1)c1cnn(Cc3ccc(F)cc3F)c(=O)c1n2C [Compound 112, 2,4-Methyl-6-[(2,4-difluorophenyl)methyl]-4H-thieno[3,2-b]pyrrole[3,2-d]pyridazinone]		44 ± 10	217			170 ± 30	
CC(C)c1cc2c(s1)c1cnn(Cc3ccccc3F)c(=O)c1n2C [Compound 69, 2-Isopropyl-4-methyl-6-[(2-fluorophenyl)methyl]-4H-thieno[3,2-b]pyrrole[3,2-d]pyridazinone]	106 ± 6.2	142 ± 20	302			1800	Emax [1, 6]: 100%
Cn1c2cc(CO)sc2c2cnn(Cc3ccccc3F)c(=O)c21 [Compound 85, 2-Hydroxylmethyl-4-methyl-6-[(2-fluorophenyl)methyl]-4H-thieno[3,2-b]pyrrole[3,2-d]pyridazinone]	103 ± 7.2	48 ± 10	155			220 ± 30	
COc1cc(F)c(S(=O)(=O)N2CCCN(S(=O)(=O)c3ccc(N)cc3)CC2)c(F)c1 [Compound 143]		1300		150.25	1300		hPK, M2 Max. Res. [1]: 89.36%
COc1ccc(Cn2ncc3c4sc(C)cc4n(C)c3c2=O)cc1F [Compound 121, 2,4-Methyl-6-[(3-fluoro-4-methoxyphenyl)methyl]-4H-thieno[3,2-b]pyrrole[3,2-d]pyridazinone]						1000	hPK, M2 Max. Res. [1]: 68.2 ± 7.9%; AC50 [1, 5]: 225 ± 97 nM; maximum response [1, 6]: 68.2%; maximum response, LDH assay [2]: 135±20%
Cc1cc2c(s1)c1cnn(Cc3c(F)cccc3F)c(=O)c1n2C [Compound 113, 2,4-Methyl-6-[(2,6-difluorophenyl)methyl]-4H-thieno[3,2-b]pyrrole[3,2-d]pyridazinone]	93.8 ± 5	49 ± 20	240			140 ± 10	
Cc1cc2c(s1)c1cnn(Cc3ccc(Cl)cc3)c(=O)c1n2C [Compound 108, 2,4-Methyl-6-[(4-chlorophenyl)methyl]-4H-thieno[3,2-b]pyrrole[3,2-d]pyridazinone]	90.6 ± 3.3	326 ± 90	191			1650	
O=S(=O)(N[C@H]1CC[C@@H](NS(=O)(=O)c2c(F)cccc2F)CC1)c1ccc2c(c1)OCCO2 [Compound 38, N-((cis)-4-(2,6-difluorophenylsulfonamido)cyclohexyl)-2,3-dihydrobenzo[b][1,4]dioxine-6-sulfonamide]	60.7 ± 5.6	> 35000	56 ± 11			7000 ± 1500	AC50 [1, 5]: 37100 ± 5000 nM
Cc1ccc(N[S+](=O)([O-])c2ccc3c(c2)CCC(=O)N3)cc1C [Compound 150]	84	163		153.98	146		
COc1cc(F)c(S(=O)(=O)N2CCCN(S(=O)(=O)c3ccc4c(c3)OCCO4)CC2)c(F)c1 [Compound 128]	96.7	36.6		159.85	58		
COc1ccc(S(=O)(=O)N2CCN(S(=O)(=O)c3c(F)cccc3F)CC2)cc1 [Compound 21, 1-(2,6-difluorophenylsulfonyl)-4-(4-methoxyphenylsulfonyl)piperazine]	102 ± 9.2	90	124 ± 30			211 ± 50	
CC(=O)c1cc2c(s1)c1cnn(Cc3ccccc3F)c(=O)c1n2C [Compound 87, 2-Acetyl-4-methyl-6-[(2-fluorophenyl)methyl]-4H-thieno[3,2-b]pyrrole[3,2-d]pyridazinone]	108 ± 4.9	11	200			150 ± 30	
COc1cc(F)c(S(=O)(=O)N2CCN(S(=O)(=O)c3cccc(N)c3)CC2)c(F)c1 [Compound 134]		23.1		141.67	73		hPK, M2 Max. Res. [1]: 87.00%
O=S(=O)(c1c(F)cccc1F)N1CCN(S(=O)(=O)c2c(F)cccc2F)CC1 [Compound 22, 1,4-bis(2,6-difluorophenylsulfonyl)piperazine]	74.3 ± 9.8	66	85 ± 8			172 ± 29	
O=C(COP(=O)(O)O)[C@@H](O)[C@H](O)[C@H](O)COP(=O)(O)O [FBP, fructose-1,6-bis-phosphate, reference compound]							% Activation by FBP ([1]; average, 100% is approximately a 2-fold increase over basal signal): 100%
COc1cccc(Cn2ncc3c4sc([S+](C)[O-])cc4n(C)c3c2=O)c1 (stereo not drawn) [Compound 148]	89	92					

Now from value to compound, other results behind:

activation at 57 µM [1] [%]	AC50 [1, 3] [nM]	Emax [2] [%]	LDH hPK, M2 Max. Res. [2] [%]	AC50 [2, 4] [nM]	SMILES	AC50 ([2]; read-out: AC50, LDH assay) [nM]	other results
105 ± 9	114 ± 20	87 ± 37			O=C1CN(S(=O)(=O)c2c(F)cccc2F)CCN1S(=O)(=O)c1ccc2c(c1)OCCO2 [Compound 49, 4-(2,6-difluorophenylsulfonyl)-1-(2,3-dihydrobenzo[b][1,4]dioxin-6-ylsulfonyl)piperazin-2-one]	440 ± 240	
81.1	4110		123.97	2590	CC(=O)Nc1ccc(S(=O)(=O)N2CCCN(S(=O)(=O)c3ccc4c(c3)OCCO4)CC2)cc1 [Compound 132]		
100 ± 6.6		109 ± 11			O=S(=O)(c1ccc2c(c1)OCCCO2)N1CCN(S(=O)(=O)c2c(F)cccc2F)CC1 [Compound 23, 1-(2,6-difluorophenylsulfonyl)-4-(3,4-dihydro-2,1-benzo[b][1,4]dioxepin-7-ylsulfonyl)piperazine]	~500	AC50 [1, 5]: 103 nM
	130		166.00	183	COc1cc(F)c(S(=O)(=O)N2CCN(S(=O)(=O)c3ccc(N)cc3)CC2)c(F)c1 [Compound 139]		hPK, M2 Max. Res. [1]: 92.46%
138 ± 11.3	66	161 ± 29			O=S(=O)(c1ccc2ccccc2c1)N1CCN(S(=O)(=O)c2c(F)cccc2F)CC1 [Compound 26, 1-(2,6-difluorophenylsulfonyl)-4-(naphthalen-2-ylsulfonyl)piperazine]	220 ± 53	
88.9	32.6		169.71		Nc1cccc(S(=O)(=O)N2CCCN(S(=O)(=O)c3ccc4c(c3)OCCO4)CC2)c1 [Compound 124]		
	41.1		98.13	146	Nc1cccc(S(=O)(=O)N2CCN(S(=O)(=O)c3ccc4c(c3)OCCO4)CC2)c1 [Compound 135]		hPK, M2 Max. Res. [1]: 82.08%
83.8	2910		114.61	2910	COc1cc(F)c(S(=O)(=O)N2CCCN(S(=O)(=O)c3cccc(NC(C)=O)c3)CC2)c(F)c1 [Compound 126]		
	410		174.46	366	Nc1ccc(S(=O)(=O)N2CCN(S(=O)(=O)c3ccc4c(c3)OCCO4)CC2)cc1 [Compound 151]		hPK, M2 Max. Res. [1]: 91.84%
		< 80			Cn1c2ccsc2c2ncn(Cc3ccccc3F)c(=O)c21 [Compound 100, 4-Methyl-6-[(2-fluorophenyl)methyl]-4H-thieno[3,2-b]pyrrole[3,2-d]pyrimidinone]		Emax [1, 6]: < 80%
	183		106.13	116	COc1cc(F)c(S(=O)(=O)N2CCN(S(=O)(=O)c3ccco3)CC2)c(F)c1 [Compound 145]		hPK, M2 Max. Res. [1]: 82.49%
	91.9		154.42	206	Nc1cccc(S(=O)(=O)N2CCN(S(=O)(=O)c3c(F)cccc3F)CC2)c1 [Compound 137]		hPK, M2 Max. Res. [1]: 81.51%
	183		148.41	183	O=S(=O)(c1cccc(O)c1)N1CCN(S(=O)(=O)c2c(F)cccc2F)CC1 [Compound 140]		hPK, M2 Max. Res. [1]: 89.61%
59.3 ± 18		< 80			Cc1cc2c(s1)c1cnn(Cc3ccc(C(F)(F)F)cc3F)c(=O)c1n2C [Compound 120, 2,4-Methyl-6-[(2-fluoro-4-trifluoromethylphenyl)methyl]-4H-thieno[3,2-b]pyrrole[3,2-d]pyridazinone]		Emax [1, 6]: < 80%
109 ± 9.4	4340 ± 740				C[C@H]1CN(S(=O)(=O)c2c(F)cccc2F)CCN1S(=O)(=O)c1ccc2c(c1)OCCO2 [Compound 45, (S)-4-(2,6-difluorophenylsulfonyl)-1-(2,3-dihydrobenzo[b][1,4]dioxin-6-ylsulfonyl)-2-methylpiperazine]		
110 ± 3	4830 ± 310				O=S(=O)(NCCCCCCNS(=O)(=O)c1c(F)cccc1F)c1ccc2c(c1)OCCO2 [Compound 36, N-(6-(2,6-difluorophenylsulfonamido)hexyl)-2,3-dihydrobenzo[b][1,4]dioxine-6-sulfonamide]		

Source: patent publication US8937067B2, “Activators of human pyruvate kinase” (The United States of America, as represented by the …, priority 2008, dated 2015)
